From US11292801B2, “Calpain modulators and therapeutic uses thereof” (Blade Therapeutics, Inc., priority 2016, dated 2022)

Tests used:
[1] = biological target: T1, Human Calpain 1/NS1 (Homo sapiens, UniProt P07384); experiment: Biochemical inhibition of calpain 1, continuous fluorescence (FRET substrate) assay; conditions: mean, read-out: Human Calpain 1/NS1 IC50 (nM)_MEAN
T1 sequence (P07384 1-714): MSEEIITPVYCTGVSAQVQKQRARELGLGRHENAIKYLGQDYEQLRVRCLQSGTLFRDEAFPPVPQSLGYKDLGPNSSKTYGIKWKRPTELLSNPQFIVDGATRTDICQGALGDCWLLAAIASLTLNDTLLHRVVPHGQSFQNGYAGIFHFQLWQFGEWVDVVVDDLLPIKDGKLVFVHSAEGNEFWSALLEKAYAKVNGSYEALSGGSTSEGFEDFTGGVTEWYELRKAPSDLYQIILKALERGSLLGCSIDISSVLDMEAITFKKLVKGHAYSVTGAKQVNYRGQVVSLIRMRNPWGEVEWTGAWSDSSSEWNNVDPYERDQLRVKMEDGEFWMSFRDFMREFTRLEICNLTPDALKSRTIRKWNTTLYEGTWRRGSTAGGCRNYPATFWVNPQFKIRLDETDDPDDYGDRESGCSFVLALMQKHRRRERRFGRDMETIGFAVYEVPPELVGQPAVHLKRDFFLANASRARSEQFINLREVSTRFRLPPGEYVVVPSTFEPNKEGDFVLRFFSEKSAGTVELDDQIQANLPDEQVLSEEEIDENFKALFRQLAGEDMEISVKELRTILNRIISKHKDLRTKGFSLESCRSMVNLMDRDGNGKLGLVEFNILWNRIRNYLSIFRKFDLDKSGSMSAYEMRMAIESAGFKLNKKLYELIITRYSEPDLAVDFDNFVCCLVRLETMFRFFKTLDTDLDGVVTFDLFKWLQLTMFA
T1 sequence (P04632 1-268 partner): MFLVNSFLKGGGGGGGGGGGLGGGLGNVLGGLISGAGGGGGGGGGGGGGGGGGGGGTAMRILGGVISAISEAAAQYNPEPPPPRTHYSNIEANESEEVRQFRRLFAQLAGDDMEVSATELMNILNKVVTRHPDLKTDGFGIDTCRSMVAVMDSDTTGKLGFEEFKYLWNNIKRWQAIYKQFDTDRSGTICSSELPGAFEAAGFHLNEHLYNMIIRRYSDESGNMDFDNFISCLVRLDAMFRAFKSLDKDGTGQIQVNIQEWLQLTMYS
Experimental: (§1) Calpain 1, 2, and 9 activity and inhibition thereof are assessed by means of a continuous fluorescence assay. The SensoLyte 520 Calpain substrate (Anaspec Inc) is optimized for detecting calpain activity. This substrate contains a novel internally quenched 5-FAM/QXL™ 520 FRET pair. Calpains 1, 2, and 9 cleave the FRET substrate into two separate fragments resulting in an increase of 5-FAM fluorescence that is proportional to calpain activity.
(§2) Assays are typically setup in black 384-well plates using automated liquid handling as follows. Calpain assay base buffer typically contains 50 mM Tris, pH˜7.5, 100 mM NaCl and 1 mM DTT. Inhibitors are serially diluted in DMSO and used to setup 2× mixtures with calpains in the aforementioned buffer. After incubation at ambient temperature (25C), the reaction is initiated by adding a 2× mix of the fluorescent peptide substrate and CaCl2) (required for in-situ calpain activation) in the same buffer. Reaction progress curve data are typically collected for 10 min using excitation/emission wavelengths of 490 nm/520 nm on SpectraMax i3× or the FLIPR-Tetra plate readers (Molecular Devices Inc). Reaction rates were calculated from progress curve slopes typically over 1-5 min. Dose response curves (rate vs. log inhibitor concentration) were typically fit to a 4-parameter logistic function to extract IC50 values.

[2] = biological target: T2, Human Calpain 2/NS1 (Homo sapiens, UniProt P17655); experiment: Biochemical inhibition of calpain 2, continuous fluorescence (FRET substrate) assay; conditions: mean, read-out: Human Calpain 2/NS1 IC50 (nM)_MEAN
T2 sequence (P17655 1-700): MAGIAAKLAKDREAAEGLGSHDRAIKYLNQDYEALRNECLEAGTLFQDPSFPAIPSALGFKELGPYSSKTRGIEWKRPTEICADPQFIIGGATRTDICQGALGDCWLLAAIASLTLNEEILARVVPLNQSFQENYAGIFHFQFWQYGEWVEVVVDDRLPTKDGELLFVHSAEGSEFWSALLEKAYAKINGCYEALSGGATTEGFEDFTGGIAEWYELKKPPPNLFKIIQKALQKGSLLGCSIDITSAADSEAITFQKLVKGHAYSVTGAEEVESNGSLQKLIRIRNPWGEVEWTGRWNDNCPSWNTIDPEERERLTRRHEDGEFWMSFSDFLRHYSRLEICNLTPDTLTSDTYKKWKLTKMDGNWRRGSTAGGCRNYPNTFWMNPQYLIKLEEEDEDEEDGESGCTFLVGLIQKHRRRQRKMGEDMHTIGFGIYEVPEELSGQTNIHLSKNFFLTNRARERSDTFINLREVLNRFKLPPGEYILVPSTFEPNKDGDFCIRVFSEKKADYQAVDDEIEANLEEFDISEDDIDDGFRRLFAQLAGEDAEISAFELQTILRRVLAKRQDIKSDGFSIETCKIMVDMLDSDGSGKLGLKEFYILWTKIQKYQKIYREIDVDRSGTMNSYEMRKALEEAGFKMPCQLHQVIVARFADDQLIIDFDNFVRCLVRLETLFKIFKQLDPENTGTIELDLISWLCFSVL
T2 sequence (P04632 1-268 partner): T1 sequence (P04632 1-268 partner)
Experimental: as §1, §2

[3] = biological target: T3, Human Calpain 9/NS1 (Homo sapiens, UniProt O14815); experiment: Biochemical inhibition of calpain 9, continuous fluorescence (FRET substrate) assay; conditions: mean, read-out: Human Calpain 9/NS1 IC50 (nM)_MEAN
T3 sequence (O14815 1-690): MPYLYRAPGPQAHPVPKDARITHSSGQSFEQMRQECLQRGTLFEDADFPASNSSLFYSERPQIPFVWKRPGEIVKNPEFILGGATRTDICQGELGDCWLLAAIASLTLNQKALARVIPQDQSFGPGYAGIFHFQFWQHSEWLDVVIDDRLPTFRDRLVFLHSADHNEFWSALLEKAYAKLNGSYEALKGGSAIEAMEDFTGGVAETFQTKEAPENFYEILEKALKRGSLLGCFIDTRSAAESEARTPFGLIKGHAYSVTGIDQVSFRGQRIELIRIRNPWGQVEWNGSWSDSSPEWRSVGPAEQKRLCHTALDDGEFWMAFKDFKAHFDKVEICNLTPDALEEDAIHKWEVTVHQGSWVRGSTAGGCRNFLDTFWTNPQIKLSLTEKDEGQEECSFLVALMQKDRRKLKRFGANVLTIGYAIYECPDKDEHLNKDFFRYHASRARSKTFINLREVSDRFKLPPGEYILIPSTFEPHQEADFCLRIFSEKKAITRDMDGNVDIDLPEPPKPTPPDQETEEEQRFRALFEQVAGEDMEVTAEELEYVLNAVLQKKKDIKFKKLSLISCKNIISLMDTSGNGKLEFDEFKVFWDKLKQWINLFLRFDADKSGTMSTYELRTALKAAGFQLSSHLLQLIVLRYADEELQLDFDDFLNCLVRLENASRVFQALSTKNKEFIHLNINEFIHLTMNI
T3 sequence (P04632 1-268 partner): T1 sequence (P04632 1-268 partner)
Experimental: as §1, §2

Compound	IC50 [1] [nM]	IC50 [2] [nM]	IC50 [3] [nM]
O=C[C@@H]1CC=CCOCCOc2ccccc2C(=O)N1 [Compound 18, (S)-11-Oxo-2,3,8,9,10,11-hexahydro-5h-benzo[e][1,4]dioxa[8]azacyclotridecine-9-carbaldehyde]	> 10000	> 10000	3000 to 10000
O=C[C@@H]1Cc2ccccc2CCCCCCOc2ccccc2C(=O)N1 [Compound 20, (S)-19-Oxo-6,7,8,9,10,11,16,17,18,19-decahydrodibenzo[b,h][1]oxa[5]aza-cyclopentadecine-17-carbaldehyde]	3000 to 10000	< 3000	< 3000
O=C[C@@H]1C/C=C/CCCCCCCc2ccccc2C(=O)N1 [Compound 23, (S,E)-1-Oxo-2,3,4,7,8,9,10,11,12,13-decahydro-1h-benzo[c][1]aza-cyclopentadecine-3-carbaldehyde]	< 3000	< 3000	< 3000
CCNC(=O)C(=O)[C@@H]1CCCCCCCCc2ccccc2C(=O)N1 [Compound 25, (S)—N-ethyl-2-oxo-2-(1-oxo-2,3,4,5,6,7,8,9,10,11-decahydro-1h-benzo[c][1]aza-cyclotridecin-3-yl)acetamide]	> 10000	> 10000	> 10000
CCNC(=O)C(=O)[C@@H]1CC=CCCCCCc2ccccc2C(=O)N1 [Compound 26, (S)—N-ethyl-2-oxo-2-(1-oxo-2,3,4,7,8,9,10,11-octahydro-1h-benzo[c][1]azacyclotridecin-3-yl)acetamide]	> 10000	> 10000	3000 to 10000
O=C[C@@H]1CC=CCCOc2cccc(c2)-c2ccccc2C(=O)N1 [Compound 29, (S)-11-Oxo-3-oxa-10-aza-1(1,2),2(1,3)-dibenzenacycloundecaphan-6-ene-9-carbaldehyde]	< 3000	< 3000	< 3000
O=C[C@@H]1Cc2ccccc2CCCOCc2ccccc2C(=O)N1 [Compound 31, (S)-17-Oxo-5,7,8,9,14,15,16,17-octahydrodibenzo[c,i][1]oxa[6]aza-cyclotridecine-15-carbaldehyde]	< 3000	< 3000	< 3000
O=C[C@@H]1Cc2cccc(c2)CCCOCc2ccccc2C(=O)N1 [Compound 32, (S)-2-Oxo-10-oxa-3-aza-1(1,2),6(1,3)-dibenzena-cycloundecaphane-4-carbaldehyde]	< 3000	< 3000	< 3000
CCNC(=O)C(=O)[C@@H]1C/C=C/CCCCCCCc2ccccc2C(=O)N1 [Compound 33, (S,E)-N-ethyl-2-oxo-2-(1-oxo-2,3,4,7,8,9,10,11,12,13-decahydro-1h-benzo[c][1]azacyclopentadecin-3-yl)acetamide]	> 10000	> 10000	> 10000
CCNC(=O)C(=O)[C@@H]1CCCCCCCCCCc2ccccc2C(=O)N1 [Compound 34, (S)—N-ethyl-2-oxo-2-(1-oxo-2,3,4,5,6,7,8,9,10,11,12,13-dodecahydro-1h-benzo[c][1]azacyclopentadecin-3-yl)acetamide]	> 10000	> 10000	> 10000
O=C[C@@H]1Cc2cccc(c2)CCCCOc2cccc(c2)-c2ncccc2C(=O)N1 [Compound 35, (S)-3-Oxo-12-oxa-4-aza-2(2,3)-pyridina-1,7(1,3)-dibenzenacyclododecaphane-5-carbaldehyde]	< 3000	< 3000	< 3000

Next, values leading:

IC50 [1] [nM]	IC50 [2] [nM]	IC50 [3] [nM]	Compound
> 10000	3000 to 10000	3000 to 10000	O=C[C@@H]1CCCCOCCOc2ccccc2C(=O)N1 [Compound 19, (S)-11-Oxo-2,3,6,7,8,9,10,11-octahydro-5h-benzo[e][1,4]dioxa[8]azacyclotridecine-9-carbaldehyde]
> 10000	3000 to 10000	3000 to 10000	O=C[C@@H]1C/C=C/CCCOc2ccccc2C(=O)N1 [Compound 21, (S)-10-Oxo-3,4,7,8,9,10-hexahydro-2h-benzo[b][1]oxa[5]aza-cyclododecine-8-carbaldehyde]
3000 to 10000	3000 to 10000	> 10000	O=C[C@@H]1Cc2ccccc2CCCOCCCn2cncc2C(=O)N1 [Compound 22]
> 10000	< 3000	< 3000	O=C[C@@H]1CCCCCCOc2ccccc2C(=O)N1 [Compound 24, (S)-10-Oxo-3,4,5,6,7,8,9,10-octahydro-2h-benzo[b][1]oxa[5]aza-cyclododecine-8-carbaldehyde]
> 10000	> 10000	> 10000	CCNC(=O)C(=O)[C@@H]1CCCCCCCCCc2ccccc2C(=O)N1 [Compound 27, (S)—N-ethyl-2-oxo-2-(1-oxo-1,2,3,4,5,6,7,8,9,10,11,12-dodecahydrobenzo[c][1]azacyclotetradecin-3-yl)acetamide]
< 3000	< 3000	< 3000	O=C[C@@H]1CCCCCCCCCCc2ccccc2C(=O)N1 [Compound 28, (S)-1-Oxo-2,3,4,5,6,7,8,9,10,11,12,13-dodecahydro-1h-benzo[c][1]aza-cyclopentadecine-3-carbaldehyde]
< 3000	< 3000	< 3000	O=C[C@@H]1CCCCCOc2cccc(c2)-c2ccccc2C(=O)N1 [Compound 30, (S)-11-Oxo-3-oxa-10-aza-1(1,2),2(1,3)-dibenzenacycloundecaphane-9-carbaldehyde]
